Laboratory results taken from patent publication US20250144067A1, “PERSONALIZED STARVATION THERAPY FOR CANCER” (Faeth Therapeutics, Inc., priority 2021, published 2025).
Counter-ions that a name gives are not always drawn. Like-named read-outs stand apart in the source and are kept apart here.

Key:
[1] = tested on: NCI-H292 lung cancer cells; experiment: FDA drug screening, complete media vs cholesterol-free media without statin (TABLE 1); assay type: cell-based, human
[2] = tested on: NCI-H292 lung cancer cells; experiment: FDA drug screening, complete media vs cholesterol-free media with simvastatin (TABLE 2); assay type: cell-based, human
[3] = Complete minus Cholesterol-free, greater than 0 enhanced anti-cancer activity, about 0 neutral, below 0 antagonists
[4] = NCI-H292 cells in cholesterol-free media without statin
[5] = NCI-H292 cells in complete media
[6] = NCI-H292 cells, FDA library drug in cholesterol-free media with simvastatin 0.04 μM
[7] = NCI-H292 cells, FDA library drug in complete media
[8] = complete media vs cholesterol-free media + simvastatin (0.04 μM), >0 enhanced anti-cancer activity, about 0 neutral, <0 antagonist
[9] = Complete minus Cholesterol-free, >0 enhanced anti-cancer activity, about 0 neutral, <0 antagonist
[10] = NCI-H292 cells, cholesterol-free media without statin, FDA drug library screen
[11] = NCI-H292 cells, complete media, FDA drug library screen
[12] = NCI-H292 cells, cholesterol-free media with simvastatin 0.04 μM, cell growth value in FDA drug screen
[13] = NCI-H292 cells, complete media, cell growth value in FDA drug screen
[14] = complete media minus cholesterol-free media + simvastatin, >0 enhanced anti-cancer activity, about 0 neutral, <0 antagonist
[15] = NCI-H292 cells, cholesterol-free media without statin
[16] = complete vs cholesterol-free media, greater than 0 enhanced anti-cancer activity, about 0 neutral, below 0 antagonists
[17] = NCI-H292 cells, FDA drug library screen, cholesterol-free media with simvastatin 0.04 μM
[18] = NCI-H292 cells, FDA drug library screen, complete media
[19] = Complete minus Cholesterol-free, […]
[20] = NCI-H292 cells, cholesterol-free media with simvastatin 0.04 μM, FDA drug library screen (TABLE 2)
[21] = NCI-H292 cells, complete media, FDA drug library screen (TABLE 2)
[22] = complete media minus cholesterol-free media + simvastatin (0.04 μM), […]
[23] = Complete minus Cholesterol-free, greater than 0 enhanced anti-cancer activity, about 0 neutral, below 0 antagonist
[24] = NCI-H292 cells, FDA drug library screen, cholesterol-free media without statin
[25] = NCI-H292 cells, drug in cholesterol-free media with simvastatin 0.04 μM
[26] = NCI-H292 cells, drug in complete media
[27] = complete vs cholesterol-free media, >0 enhanced anti-cancer activity, about 0 neutral, <0 antagonist
[28] = complete media vs cholesterol-free media + simvastatin (0.04 μM), […]

Molecule `C[C@H](Nc1ncnc2nc[nH]c12)c1cc2cccc(Cl)c2c(=O)n1-c1ccccc1` [Duvelisib] has a Difference [1, 3] of −0.51, a Cholesterol-free [1, 4] of 1.444 and a Complete [1, 5] of 0.9349. For the same molecule, the “Cholesterol-free media + simvastatin (0.04 μM)” value [2, 6] was 1.228, the “Complete Media” value [2, 7] was 0.8817 and the Difference [2, 8] was −0.35.
`COc1nc(C)nc(Cl)c1N=C1NCCN1` [Moxonidine] showed a Difference [1, 9] of 0.05, a Cholesterol-free [1, 10] of 0.9137 and a Complete [1, 11] of 0.9657. For the same molecule, the “Cholesterol-free media + simvastatin (0.04 μM)” value [2, 12] was 0.8373, the “Complete Media” value [2, 13] was 0.9283 and the Difference [2, 14] was 0.09.
`C/C=C/C1=C(C(=O)O)N2C(=O)[C@@H](NC(=O)[C@H](N)c3ccc(O)cc3)[C@H]2SC1.O` [Cefprozil (monohydrate)] was tested, and the Cholesterol-free [1, 15] was 1.442, the Complete ([1]; NCI-H292 cells, complete media) was 1.109 and the Difference [1, 16] was −0.33. For the same molecule, the “Cholesterol-free media + simvastatin (0.04 μM)” value [2, 17] was 0.9773, the “Complete Media” value [2, 18] was 1.216 and the Difference [2, 14] was 0.24.
Molecule `OCC(CO)N[C@H]1C[C@](O)(CO)[C@@H](O)[C@H](O)[C@H]1O` [Voglibose] has a Cholesterol-free [1] of 1.147, a Complete [1] of 1.027 and a Difference [1] of −0.12. The “Cholesterol-free media + simvastatin (0.04 μM)” value [2] was 0.9097, the “Complete Media” value [2] was 0.6837 and the Difference [2] was −0.23.
`CC(=O)NCCCS(=O)(=O)O` [Acamprosate (calcium)] was tested, and the Difference [1, 19] was 0.03, the Cholesterol-free [1, 10] was 1.751 and the Complete [1, 11] was 1.779. The “Cholesterol-free media + simvastatin (0.04 μM)” value [2, 20] was 1.34, the “Complete Media” value [2, 21] was 1.328 and the Difference [2, 22] was −0.01.
`C[C@@H](NCCCc1cccc(C(F)(F)F)c1)c1cccc2ccccc12` [Cinacalcet (hydrochloride)] showed a Cholesterol-free [1, 15] of 1.099, a Complete ([1]; NCI-H292 cells, complete media) of 0.7862 and a Difference [1, 16] of −0.31. For the same molecule, the “Cholesterol-free media + simvastatin (0.04 μM)” value [2, 12] was 0.9304, the “Complete Media” value [2, 13] was 0.9877 and the Difference [2, 14] was 0.06.
In the case of Bismuth subgallate, the Difference [1, 19] is reported as −0.19, the Cholesterol-free [1, 15] is reported as 1.126 and the “Cholesterol-free media + simvastatin (0.04 μM)” value [2, 20] is reported as 1.033. The “Complete Media” value [2, 21] was 0.9832 and the Difference [2, 22] was −0.05.
In the case of `C/C(O)=C(\C#N)C(=O)Nc1ccc(C(F)(F)F)cc1` [Teriflunomide], the Difference [1, 23] is reported as −0.16, the Cholesterol-free [1, 24] is reported as 1.092 and the Complete [1, 18] is reported as 0.9318. For the same molecule, the “Cholesterol-free media + simvastatin (0.04 μM)” value [2, 6] was 1.712, the “Complete Media” value [2, 7] was 0.9665 and the Difference [2, 8] was −0.75.
`C[C@](N)(Cc1ccc(O)c(O)c1)C(=O)O.O` [L-(−)-α-Methyldopa (hydrate)] was tested, and the Difference [1, 3] was −0.69, the Cholesterol-free [1, 4] was 1.665 and the Complete [1, 5] was 0.973. For the same molecule, the “Cholesterol-free media + simvastatin (0.04 μM)” value [2, 6] was 1.97, the “Complete Media” value [2, 7] was 1.117 and the Difference [2, 8] was −0.85.
In the case of `OCCN(CCO)c1nc(N2CCCCC2)c2nc(N(CCO)CCO)nc(N3CCCCC3)c2n1` [Dipyridamole], the Difference [1, 3] is reported as −0.51, the Cholesterol-free [1, 4] is reported as 1.48 and the Complete [1, 5] is reported as 0.9729. The “Cholesterol-free media + simvastatin (0.04 μM)” value [2, 12] was 0.9652, the “Complete Media” value [2, 13] was 1.095 and the Difference [2, 14] was 0.13.
`CC(C)(CCCCCC(O)CCCCCC(C)(C)C(=O)O)C(=O)O` [Bempedoic acid] showed a Difference [1, 9] of −0.25, a Cholesterol-free [1, 15] of 1.343 and a Complete ([1]; NCI-H292 cells, complete media) of 1.094. For the same molecule, the “Cholesterol-free media + simvastatin (0.04 μM)” value [2, 17] was 1.143, the “Complete Media” value [2, 18] was 1.281 and the Difference [2, 14] was 0.14.
With `C[C@]12CC[C@H]3[C@@H](CC[C@@]45O[C@@H]4C(O)=C(C#N)C[C@]35C)[C@@H]1CC[C@@H]2O` [Trilostane] the Difference [1, 9] was −0.23, the Cholesterol-free [1, 15] was 1.238 and the Complete ([1]; NCI-H292 cells, complete media) was 1.003. For the same molecule, the “Cholesterol-free media + simvastatin (0.04 μM)” value [2, 25] was 1.758, the “Complete Media” value [2, 26] was 1.505 and the Difference [2, 8] was −0.25.
With `CC1(C)S[C@@H]2[C@H](NC(=O)[C@H](NC(=O)N3CCNC3=O)c3ccccc3)C(=O)N2[C@H]1C(=O)O` [Azlocillin (sodium salt)] the Difference [1, 23] was −0.16, the Cholesterol-free [1, 24] was 1.217 and the Complete [1, 18] was 1.06. For the same molecule, the “Cholesterol-free media + simvastatin (0.04 μM)” value [2, 17] was 1.046, the “Complete Media” value [2, 18] was 0.9592 and the Difference [2, 8] was −0.09.
Molecule `CO[C@]12C[C@@H](COC(=O)c3cncc(Br)c3)CN(C)[C@@H]1Cc1cn(C)c3cccc2c13` [Nicergoline] has a Cholesterol-free [1, 10] of 0.9355, a Complete [1, 11] of 1.445 and a Difference [1, 27] of 0.51. The “Cholesterol-free media + simvastatin (0.04 μM)” value [2, 6] was 1.053, the “Complete Media” value [2, 7] was 0.4708 and the Difference [2, 8] was −0.58.
Molecule `O=C1C2CC3CC1CC(O)(C3)C2` [Idramantone] has a Difference [1, 3] of −0.71, a Cholesterol-free [1, 4] of 1.638 and a Complete [1, 5] of 0.9237. For the same molecule, the “Cholesterol-free media + simvastatin (0.04 μM)” value [2, 17] was 1.208, the “Complete Media” value [2, 18] was 1.085 and the Difference [2, 8] was −0.12.
`C=CCN1CCCC1CNC(=O)c1cc2[nH]nnc2cc1OC` (stereo not shown) [Alizapride hydrochloride] was tested, and the Cholesterol-free [1, 15] was 1.222, the Complete ([1]; NCI-H292 cells, complete media) was 0.9062 and the Difference [1, 16] was −0.32. The “Cholesterol-free media + simvastatin (0.04 μM)” value [2, 12] was 1.019, the “Complete Media” value [2, 13] was 1.057 and the Difference [2, 14] was 0.04.
`COc1cc2c(cc1OC)[C@@H](Cc1cc(OC)c(OC)c(OC)c1)[N+](C)(CCCOC(=O)CC/C=C/CCC(=O)OCCC[N+]1(C)CCc3cc(OC)c(OC)cc3[C@H]1Cc1cc(OC)c(OC)c(OC)c1)CC2.[Cl-].[Cl-]` (stereo partly shown) [Mivacurium (dichloride)] showed a Difference [1, 19] of −0.21, a Cholesterol-free [1, 15] of 0.9248 and a Complete ([1]; NCI-H292 cells, complete media) of 0.7178. For the same molecule, the “Cholesterol-free media + simvastatin (0.04 μM)” value [2, 6] was 1.752, the “Complete Media” value [2, 7] was 1.463 and the Difference [2, 28] was −0.29.
For `CCN(CC)C(=O)/C(C#N)=C/c1cc(O)c(O)c([N+](=O)[O-])c1` [Entacapone], the Cholesterol-free [1, 10] was 0.7629, the Complete [1, 11] was 0.9193 and the Difference [1, 27] was 0.16. For the same molecule, the “Cholesterol-free media + simvastatin (0.04 μM)” value [2, 17] was 1.719, the “Complete Media” value [2, 18] was 1.579 and the Difference [2, 8] was −0.14.
`CCOC(=O)C1=C(C)NC(C)=C(C(=O)OCC)C1c1ccccc1/C=C/C(=O)OC(C)(C)C` [Lacidipine] showed a Difference [1, 9] of −0.07, a Cholesterol-free [1, 10] of 1.081 and a Complete [1, 11] of 1.013. The “Cholesterol-free media + simvastatin (0.04 μM)” value [2, 6] was 1.8, the “Complete Media” value [2, 7] was 0.96 and the Difference [2, 8] was −0.84.
Work on `CC(O)C(=O)O.CCOc1ccc2nc3cc(N)ccc3c(N)c2c1` [Ethacridine (lactate)] yielded a Difference [1, 19] of −0.28, a Cholesterol-free [1, 15] of 0.3206 and a Complete ([1]; NCI-H292 cells, complete media) of 0.04483. For the same molecule, the “Cholesterol-free media + simvastatin (0.04 μM)” value [2, 17] was 0.2653, the “Complete Media” value [2, 18] was 0.1668 and the Difference [2, 28] was −0.10.
With `NC(=O)C[C@H](N)C(=O)O` [L-Asparagine] the Difference [1, 9] was −0.27, the Cholesterol-free [1, 15] was 1.71 and the Complete ([1]; NCI-H292 cells, complete media) was 1.437. For the same molecule, the “Cholesterol-free media + simvastatin (0.04 μM)” value [2, 12] was 0.6588, the “Complete Media” value [2, 13] was 0.704 and the Difference [2, 14] was 0.05.
`NC[C@H]1CC[C@H](C(=O)O)CC1` [Tranexamic acid] gave a Difference [1, 3] of −0.77, a Cholesterol-free [1, 4] of 2.288 and a Complete [1, 5] of 1.522. For the same molecule, the “Cholesterol-free media + simvastatin (0.04 μM)” value [2, 25] was 1.894, the “Complete Media” value [2, 26] was 1.678 and the Difference [2, 8] was −0.22.
`CC1(O)CCC(C(C)(C)O)CC1` (stereo not shown) [Terpin (hydrate)] was tested, and the Difference [1, 9] was 0.06, the Cholesterol-free [1, 10] was 0.8684 and the Complete [1, 11] was 0.9288. The “Cholesterol-free media + simvastatin (0.04 μM)” value [2, 25] was 1.474, the “Complete Media” value [2, 26] was 1.21 and the Difference [2, 8] was −0.26.
With `COc1ccc(/C=C/C(=O)Nc2ccccc2C(=O)O)cc1OC` [trans-Tranilast] the Difference [1, 19] was −0.10, the Complete [1, 18] was 0.8406 and the “Cholesterol-free media + simvastatin (0.04 μM)” value [2, 25] was 1.144. For the same molecule, the “Complete Media” value [2, 26] was 0.9085 and the Difference [2, 28] was −0.24.
